The target in assay [1] is T1, non-phosphorylated c-ABL kinase domain (Homo sapiens, UniProt P00519).
T1 construct: phosphorylated and non-phosphorylated c-ABL kinase domain; purchased DiscoverRx Corporation (KinomeScan platform)
T1 sequence (P00519 242-493 limits assumed): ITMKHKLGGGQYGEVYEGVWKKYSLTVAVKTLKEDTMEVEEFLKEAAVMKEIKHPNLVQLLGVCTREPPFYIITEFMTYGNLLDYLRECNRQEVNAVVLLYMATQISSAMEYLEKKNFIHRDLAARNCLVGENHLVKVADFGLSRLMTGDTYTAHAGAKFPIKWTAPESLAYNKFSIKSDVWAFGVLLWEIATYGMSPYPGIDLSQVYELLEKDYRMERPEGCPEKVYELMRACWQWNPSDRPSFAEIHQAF
The assay is described as follows: KinomeScan in vitro binding affinity (Kd), non-phosphorylated c-ABL kinase domain. The procedure: (§1) PROTAC in vitro binding affinities (Kd) to phosphorylated and non-phosphorylated c-ABL kinase domain were determined using the KinomeScan platform (DiscoverRx Corporation). The compounds were solubilized in DMSO and sent to DiscoverRx Corporation as a 10 μM stock solution.

Assay [2] deals with T2, phosphorylated c-ABL kinase domain (Homo sapiens, UniProt P00519).
T2 construct: phosphorylated and non-phosphorylated c-ABL kinase domain; purchased DiscoverRx Corporation (KinomeScan platform)
T2 sequence (P00519 242-493 limits assumed): T1 sequence (P00519 242-493 limits assumed)
The assay is described as follows: KinomeScan in vitro binding affinity (Kd), phosphorylated c-ABL kinase domain. The procedure:
as §1

The mark [3] stands for this setting: Table 2, read-out: ABL (non-phosphorylated).
Where [4] appears, read: Table 2, read-out: ABL (phosphorylated).
The mark [5] stands for this setting: Table 1, ABL kinase domain, read-out: ABL (non-phosphorylated) affinity.
Where [6] appears, read: Table 1, ABL kinase domain, read-out: ABL (phosphorylated) affinity.

Where two headings read alike, the source gives them in different places.

In the case of `Cc1ccc(NC(=O)c2ccc(CN3CCN(CCCCCCOCCCCCOCCCCCC(=O)N[C@H](C(=O)N4C[C@H](O)C[C@H]4C(=O)NCc4ccc(-c5scnc5C)cc4)C(C)(C)C)CC3)cc2)cc1Nc1nccc(-c2cccnc2)n1` [IMA-6-5-6-VHL, (2S,4R)-1-((S)-3,3-dimethyl-2-(6-((5-((6-(4-(4-((4-methyl-3-((4-(pyridin-3-yl)pyrimidin-2-yl)amino)phenyl)carbamoyl)benzyl)piperazin-1-yl)hexyl)oxy)pentyl)oxy)hexanamido)butanoyl)-4-hydroxy-N-(4-(4-methylthiazol-5-yl)benzyl)pyrrolidine-2-carboxamide], the Kd in assay [1] (setting [3]) was determined as 19 nM; in assay [2] (setting [4]) it was 46 nM.

As to `COc1cc(Nc2c(C#N)cnc3cc(OCCCN4CCN(CCCCCCOCCCCCOCCCCCC(=O)Nc5cccc6c5C(=O)N(C5CCC(=O)NC5=O)C6=O)CC4)c(OC)cc23)c(Cl)cc1Cl` (stereo not shown) [BOS-6-5-6-CRBN, 6-((5-((6-(4-(3-((3-cyano-4-((2,4-dichloro-5-methoxyphenyl)amino)-6-methoxyquinolin-7-yl)oxy)propyl)piperazin-1-yl)hexyl)oxy)pentyl)oxy)-N-(2-(2,6-dioxopiperidin-3-yl)-1,3-dioxoisoindolin-4-yl)hexanamide], the Kd in assay [1] (setting [3]) was 2.8 nM; in assay [2] (setting [4]) it was 1.1 nM.

On to `Cc1ccc(NC(=O)c2ccc(CN3CCN(CCCCCCOCCOCCOCCCCCC(=O)N[C@H](C(=O)N4C[C@H](O)C[C@H]4C(=O)NCc4ccc(-c5scnc5C)cc4)C(C)(C)C)CC3)cc2)cc1Nc1nccc(-c2cccnc2)n1` [IMA-6-2-2-6-VHL, (2S,4R)-1-((S)-2-(tert-butyl)-22-(4-(4-((4-methyl-3-((4-(pyridin-3-yl)pyrimidin-2-yl)amino)phenyl)carbamoyl)benzyl)piperazin-1-yl)-4-oxo-10,13,16-trioxa-3-azadocosanoyl)-4-hydroxy-N-(4-(4-methylthiazol-5-yl)benzyl)pyrrolidine-2-carboxamide], for which the Kd in assay [1] (setting [5]) is 4.3 nM; in assay [2] (setting [6]), 93 nM.

With `Cc1nc(Nc2ncc(C(=O)Nc3c(C)cccc3Cl)s2)cc(N2CCN(CCCCCCOCCOCC(=O)Nc3cccc4c3C(=O)N(C3CCC(=O)NC3=O)C4=O)CC2)n1` (stereo not shown) [DAS-6-2-2-CRBN, N-(2-chloro-6-methylphenyl)-2-((6-(4-(6-(2-(2-((2-(2,6-dioxopiperidin-3-yl)-1,3-dioxoisoindolin-4-yl)amino)-2-oxoethoxy)ethoxy)hexyl)piperazin-1-yl)-2-methylpyrimidin-4-yl)amino)thiazole-5-carboxamide], the Kd stood at 0.28 nM in assay [1] (setting [3]) and 0.19 nM in assay [2] (setting [4]).

For `Cc1nc(Nc2ncc(C(=O)Nc3c(C)cccc3Cl)s2)cc(N2CCN(CCCCCCOCCCCCOCCCCCC(=O)Nc3cccc4c3C(=O)N(C3CCC(=O)NC3=O)C4=O)CC2)n1` (stereo not shown) [DAS-6-5-6-CRBN, N-(2-chloro-6-methylphenyl)-2-((6-(4-(6-((5-((6-((2-(2,6-dioxopiperidin-3-yl)-1,3-dioxoisoindolin-4-yl)amino)-6-oxohexyl)oxy)pentyl)oxy)hexyl)piperazin-1-yl)-2-methylpyrimidin-4-yl)amino)thiazole-5-carboxamide], the Kd amounted to 1.3 nM in assay [1] (setting [3]) and 1.4 nM in assay [2] (setting [4]).

Regarding `COc1cc(Nc2c(C#N)cnc3cc(OCCCN4CCN(CCCCCCOCCCCCOCCCCCC(=O)N[C@H](C(=O)N5C[C@H](O)C[C@H]5C(=O)NCc5ccc(-c6scnc6C)cc5)C(C)(C)C)CC4)c(OC)cc23)c(Cl)cc1Cl` [BOS-6-5-6-VHL, (2S,4R)-1-((S)-2-(6-((5-((6-(4-(3-((3-cyano-4-((2,4-dichloro-5-methoxyphenyl)amino)-6-methoxyquinolin-7-yl)oxy)propyl)piperazin-1-yl)hexyl)oxy)pentyl)oxy)hexanamido)-3,3-dimethylbutanoyl)-4-hydroxy-N-(4-(4-methylthiazol-5-yl)benzyl)pyrrolidine-2-carboxamide], the Kd came out at 4.6 nM in assay [1] (setting [3]) and 1.5 nM in assay [2] (setting [4]).

Consider `COc1cc(Nc2c(C#N)cnc3cc(OCCCN4CCN(CCCCCCOCCOCCOCCCCCC(=O)Nc5cccc6c5C(=O)N(C5CCC(=O)NC5=O)C6=O)CC4)c(OC)cc23)c(Cl)cc1Cl` (stereo not shown) [BOS-6-2-2-6-CRBN, 6-(2-(2-((6-(4-(3-((3-cyano-4-((2,4-dichloro-5-methoxyphenyl)amino)-6-methoxyquinolin-7-yl)oxy)propyl)piperazin-1-yl)hexyl)oxy)ethoxy)ethoxy)-N-(2-(2,6-dioxopiperidin-3-yl)-1,3-dioxoisoindolin-4-yl)hexanamide], for which the Kd in assay [1] (setting [3]) was determined as 0.91 nM; in assay [2] (setting [4]) it was 0.55 nM.

For `Cc1ccc(NC(=O)c2ccc(CN3CCN(CCCCCCOCCOCC(=O)Nc4cccc5c4C(=O)N(C4CCC(=O)NC4=O)C5=O)CC3)cc2)cc1Nc1nccc(-c2cccnc2)n1` (stereo not shown) [IMA-6-2-2-CRBN, 4-((4-(6-(2-(2-((2-(2,6-dioxopiperidin-3-yl)-1,3-dioxoisoindolin-4-yl)amino)-2-oxoethoxy)ethoxy)hexyl)piperazin-1-yl)methyl)-N-(4-methyl-3-((4-(pyridin-3-yl)pyrimidin-2-yl)amino)phenyl)benzamide], the Kd in assay [1] (setting [3]) came to 4.7 nM; in assay [2] (setting [4]), 72 nM.

Regarding `Cc1ccc(NC(=O)c2ccc(CN3CCN(CCCCCCOCCCCCOCCCCCC(=O)Nc4cccc5c4C(=O)N(C4CCC(=O)NC4=O)C5=O)CC3)cc2)cc1Nc1nccc(-c2cccnc2)n1` (stereo not shown) [IMA-6-5-6-CRBN, 4-((4-(6-((5-((6-((2-(2,6-dioxopiperidin-3-yl)-1,3-dioxoisoindolin-4-yl)amino)-6-oxohexyl)oxy)pentyl)oxy)hexyl)piperazin-1-yl)methyl)-N-(4-methyl-3-((4-(pyridin-3-yl)pyrimidin-2-yl)amino)phenyl)benzamide], the Kd turned out to be 24 nM in assay [1] (setting [3]) and 360 nM in assay [2] (setting [4]).

For `Cc1ccc(NC(=O)c2ccc(CN3CCN(CCCCCCOCCOCCOCCCCCC(=O)Nc4cccc5c4C(=O)N(C4CCC(=O)NC4=O)C5=O)CC3)cc2)cc1Nc1nccc(-c2cccnc2)n1` (stereo not shown) [IMA-6-2-2-6-CRBN, 4-((4-(6-(2-(2-((6-((2-(2,6-dioxopiperidin-3-yl)-1,3-dioxoisoindolin-4-yl)amino)-6-oxohexyl)oxy)ethoxy)ethoxy)hexyl)piperazin-1-yl)methyl)-N-(4-methyl-3-((4-(pyridin-3-yl)pyrimidin-2-yl)amino)phenyl)benzamide], the Kd was 6.2 nM in assay [1] (setting [5]) and 110 nM in assay [2] (setting [6]).

For the compound `COc1cc(Nc2c(C#N)cnc3cc(OCCCN4CCN(CCCCCCOCCOCCOCCCCCC(=O)N[C@H](C(=O)N5C[C@H](O)C[C@H]5C(=O)NCc5ccc(-c6scnc6C)cc5)C(C)(C)C)CC4)c(OC)cc23)c(Cl)cc1Cl` [BOS-6-2-2-6-VHL, (2S,4R)-1-((S)-2-(tert-butyl)-22-(4-(3-((3-cyano-4-((2,4-dichloro-5-methoxyphenyl)amino)-6-methoxyquinolin-7-yl)oxy)propyl)piperazin-1-yl)-4-oxo-10,13,16-trioxa-3-azadocosanoyl)-4-hydroxy-N-(4-(4-methylthiazol-5-yl)benzyl)pyrrolidine-2-carboxamide], the Kd in assay [1] (setting [5]) worked out at 1.4 nM; in assay [2] (setting [6]), 0.63 nM.

As for `Cc1ccc(NC(=O)c2ccc(CN3CCN(CCCCCCOCCOCC(=O)N[C@H](C(=O)N4C[C@H](O)C[C@H]4C(=O)NCc4ccc(-c5scnc5C)cc4)C(C)(C)C)CC3)cc2)cc1Nc1nccc(-c2cccnc2)n1` [IMA-6-2-2-VHL, (2S,4R)-1-((S)-3,3-dimethyl-2-(2-(2-((6-(4-(4-((4-methyl-3-((4-(pyridin-3-yl)pyrimidin-2-yl)amino)phenyl)carbamoyl)benzyl)piperazin-1-yl)hexyl)oxy)ethoxy)acetamido)butanoyl)-4-hydroxy-N-(4-(4-methylthiazol-5-yl)benzyl)pyrrolidine-2-carboxamide], the Kd in assay [1] (setting [3]) was determined as 5.8 nM; in assay [2] (setting [4]), 98 nM.

Consider `Cc1ccc(NC(=O)c2ccc(CN3CCN(CCCCCCOCCOCCOCCOCCOCCOCC(=O)Nc4cccc5c4C(=O)N(C4CCC(=O)NC4=O)C5=O)CC3)cc2)cc1Nc1nccc(-c2cccnc2)n1` (stereo not shown) [IMA-6-(2-)5-2-CRBN, N-(2-(2,6-dioxopiperidin-3-yl)-1,3-dioxoisoindolin-4-yl)-24-(4-(4-((4-methyl-3-((4-(pyridin-3-yl)pyrimidin-2-yl)amino)phenyl)carbamoyl)benzyl)piperazin-1-yl)-3,6,9,12,15,18-hexaoxatetracosanamide], for which the Kd in assay [1] (setting [3]) was 3 nM; in assay [2] (setting [4]), 84 nM.

Take `Cc1ccc(NC(=O)c2ccc(CN3CCN(CCCCCCOCCOCCOCCOCCOCCOCC(=O)N[C@H](C(=O)N4C[C@H](O)C[C@H]4C(=O)NCc4ccc(-c5scnc5C)cc4)C(C)(C)C)CC3)cc2)cc1Nc1nccc(-c2cccnc2)n1` [IMA-6-(2-)5-2-VHL, (2S,4R)-1-((S)-2-(tert-butyl)-27-(4-(4-((4-methyl-3-((4-(pyridin-3-yl)pyrimidin-2-yl)amino)phenyl)carbamoyl)benzyl)piperazin-1-yl)-4-oxo-6,9,12,15,18,21-hexaoxa-3-azaheptacosanoyl)-4-hydroxy-N-(4-(4-methylthiazol-5-yl)benzyl)pyrrolidine-2-carboxamide]: the Kd worked out at 1.7 nM in assay [1] (setting [3]) and 35 nM in assay [2] (setting [4]).

These data come from patent US9938264B2, “Proteolysis targeting chimera compounds and methods of preparing and using same” (YALE UNIVERSITY, priority 2015, dated 2018).
